By MIC is commonly meant the least concentration at which growth counts as inhibited. A lower MIC goes with greater potency.

SMILES strings stand for the structures. Converted amounts (≈) assume the structure as drawn.

Format in all cases: functional
Assay [1] deals with Phomopsis obscurans. The assay is described as follows: Growth inhibition of Phomopsis obscurans at 100 uM after 48 hr by microtiter assay. The following applies: Paraphomopsis obscurans, read-out: GI.
Assay [2] relates to Colletotrichum acutatum. Briefly: Growth inhibition of Colletotrichum acutatum at 300 uM after 48 hr by microtiter assay. The following applies: read-out: GI.
Assay [3] has as its system Fusarium oxysporum. Briefly: Growth inhibition of Fusarium oxysporum at 300 uM after 48 hr by microtiter assay. Conditions: read-out: GI.
Assay [4] relates to Colletotrichum fragariae. Briefly: Growth inhibition of Colletotrichum fragariae at 300 uM after 48 hr by microtiter assay. The following applies: read-out: GI.
Assay [5] has as its system Bipolaris oryzae. The assay is described as follows: Growth inhibition of Bipolaris oryzae at 10 ug/ml. The following applies: read-out: GI.
The test system of assay [6] is Pectobacterium carotovorum. Briefly: Antibacterial activity against Pectobacterium carotovorum.
Assay [7] has as its system Rhizoctonia solani. Briefly: Growth inhibition of Rhizoctonia solani at 10 ug/ml. Conditions: read-out: GI.
For assay [8], the system named is Globisporangium ultimum. Briefly: Growth inhibition of Pythium ultimum at 10 ug/ml. Conditions: read-out: GI.
Assay [9] concerns Agrobacterium tumefaciens. The assay is described as follows: Antibacterial activity against Agrobacterium tumefaciens.
The test system of assay [10] is Clavibacter michiganensis. Briefly: Antibacterial activity against Clavibacter michiganensis.
The subject of assay [11] is Fusarium oxysporum. The assay is described as follows: Growth inhibition of Fusarium oxysporum at 10 ug/ml. The following applies: read-out: GI.
Assay [12] deals with Verticillium dahliae. Briefly: Growth inhibition of Verticillium dahliae at 10 ug/ml. Conditions: read-out: GI.
The test system of assay [13] is Gaeumannomyces graminis. Briefly: Growth inhibition of Gaeumannomyces graminis at 10 ug/ml. Conditions: read-out: GI.
The subject of assay [14] is Pyricularia oryzae. The assay is described as follows: Growth inhibition of Magnaporthe oryzae at 10 ug/ml. The following applies: read-out: GI.
Assay [15] concerns Xanthomonas campestris pv. oryzae. Briefly: Antibacterial activity against Xanthomonas campestris pv. oryzae.
Assay [16] concerns Ralstonia solanacearum. The assay is described as follows: Antibacterial activity against Ralstonia solanacearum.
Assay [17] deals with Colletotrichum gloeosporioides. Briefly: Growth inhibition of Colletotrichum gloeosporioides at 100 uM after 48 hr by microtiter assay. Conditions: read-out: GI.
For assay [18], the system named is Plasmopara viticola. Briefly: Growth inhibition of Plasmopara viticola at 30 uM after 48 hr by microtiter assay. Conditions: read-out: GI.
The test system of assay [19] is Phomopsis obscurans. Briefly: Growth inhibition of Phomopsis obscurans at 30 uM after 48 hr by microtiter assay. Conditions: Paraphomopsis obscurans, read-out: GI.

For `CCCCNC(=O)n1c(NC(=O)OC)nc2ccccc21` [BENOMYL], the inhibition of growth at 100 µM in assay [1] amounted to 100%. For the same molecule, the inhibition of growth at 300 µM in assay [2] came out at 33%; in assay [3], 77%; in assay [4] it was 76%.

As to `CCCCCCCCCc1cc(=O)c2ccccc2[nH]1`, the inhibition of growth at 300 µM was 50% in [2] and 37% in [3].

For the molecule `CCCC/C=C/Cc1[nH]c2ccccc2c(=O)c1C`, the inhibition of growth at 10 µg/mL in [5] is 63.9%; in assay [7], 50.9%; in assay [8], 37.7%; in [11], 34.4%; in assay [12], 82.8%; in assay [13] it was 17.1%. In addition, the inhibition of growth at 10 µg/mL in [14] was found to be 70.8%. For the same molecule, the minimal inhibitory concentration (MIC) is above 50 µg/mL in assay [6]; above 50 µg/mL in assay [9]; 10 µg/mL (≈ 39.2 µM) in assay [10]; 50 µg/mL (≈ 196 µM) in assay [15]; above 50 µg/mL in assay [16].

As for `O=C1C2CC=CCC2C(=O)N1SC(Cl)(Cl)Cl` (stereo unspecified) [CAPTAN], in assay [3], the inhibition of growth at 300 µM amounted to 100%.

As to `CCCCCC/C=C/Cc1[nH]c2ccccc2c(=O)c1C`, the inhibition of growth at 10 µg/mL was determined as 68% in assay [5]; 58.1% in assay [7]; 0% in assay [8]; 41.1% in [11]; 74.9% in [12]; 54.7% in assay [13]. In addition, the inhibition of growth at 10 µg/mL in [14] amounted to 49.9%. Also, the MIC in assay [6] is above 20 µg/mL; in assay [9] it was above 20 µg/mL; in assay [10], 10 µg/mL (≈ 35.3 µM); in assay [15] it was above 20 µg/mL; in [16], above 20 µg/mL.

Take `Cn1c(CCCCCCc2ccc3c(c2)OCO3)cc(=O)c2ccccc21`: the inhibition of growth at 100 µM in assay [17] was found to be 67.7%. In addition, the inhibition of growth at 30 µM in assay [18] and in [19] was 100% in each case. The inhibition of growth at 300 µM in assay [2] and in [4] was 57% throughout.

Values taken from ChEMBL document CHEMBL3044533, “Alkyl, aryl, alkylarylquinoline, and related alkaloids” (2007).
